Experiments:
SH-SY5Y cells = assay: Cytotoxicity assay (MTT), SH-SY5Y cells; format: cell-based, human; details: CC50 (SH-SY5Y) divided by EC50 (S. mansoni)
Experimental: (§1) The selectivity index (SI) of a compound is a widely accepted parameter used to express a drug’s in vitro efficacy. Therefore, the cytotoxic effect of these six pyrazolines (16, 18, 19, 21, 22 and 23) was evaluated using a monkey cell line (Vero) and a human cell line (SH-SY5Y). Cells were incubated with each compound at a range of concentrations for determination of cytotoxic concentrations 50% (CC50). […] With the EC50 data collected for schistosomes as well as the CC50 for animal and human cells, the selectivity indices (SI) were determined for each of the pyrazolines tested (Table 1). […] A SI value ≥ 10 is in accordance with the criteria defined by the WHO for antiparasitic hits, leads, and drug candidates. […] Comparatively, the SI values achieved with pyrazolines exceeded those obtained for other relevant heterocyclic compounds with antischistosomal properties[21],[22]. Although the SI values recorded for pyrazolines were more than 10 times below those for the reference drug praziquantel, a SI value ≥ 10 fulfills and exceeds the criteria established by the WHO for potential compounds as anthelmintic agents. The cytotoxicity of compounds was tested against Vero cells (African green monkey kidney cells obtained from the American Type Culture Collection, ATCC; Manassas, VA, USA) and SH-SY5Y cells (human neuroblastoma obtained from Banco de Células do Rio de Janeiro, BCRJ, RJ, Brazil). Cells was cultured in DMEM medium supplemented with 10% fetal calf serum, penicillin (100 U/mL) and streptomycin (100 µg/mL) and 2 mM of L-glutamine at 37 °C and in a 5% CO2 humidified incubator (Panasonic). The DMEM contained 1 or 4 mg/mL glucose for Vero and SH-SY5Y cells, respectively. Cytotoxicity assay was performed as previously described[25],[26]. Briefly, cells were seeded in 96-well plates (Corning) in DMEM medium and incubated with twofold serial drug starting at 200 μM following a 24 h adhesion period at 37 °C in 5% CO2. After 72 h, MTT was added and incubation was continued for another 3 h. The plate was then read using spectrophotometer (Epoch Microplate Spectrophotometer, BioTek Instruments, Winooski, VT, USA) at 595 nm. The assay was conducted in duplicate and repeated three times. Values were expressed as percentage of the control and 50% cytotoxic concentration (CC50) values were calculated. The selectivity indices (SI) of tested compounds were calculated by dividing CC50 values obtained on mammalian cells with EC50 values determined on S. mansoni.

[1] = Cytotoxicity assay (MTT), SH-SY5Y cells; format: cell-based, human; details: human, SH-SY5Y cells (human neuroblastoma); SH-SY5Y cells, 72 h, MTT
Experimental: as §1

[2] = tested on: paired adult schistosomes (S. mansoni); assay: Egg production (fecundity) of paired adult schistosomes in vitro; format: cell-based, Schistosoma mansoni; details: sublethal concentrations (6.25 μM for 16, 12.5 μM for 19 and 23), compared to control
Experimental: Based on antischistosomal properties of pyrazolines 16, 18, 19, 21, 22 and 23, the ability of these six compounds to affect fecundity (egg production) was subsequently measured. […] To further investigate this effect on schistosome fecundity, parasites were tested using sublethal concentrations (3.5 μM for compound 22, 6.25 μM for compound 16, and 12.5 μM for compounds 18, 19, 21, and 23).
(§2) Adult schistosomes (BH strain) were isolated from infected mice and cultured in RPMI medium + 10% fetal calf serum and 100 U/mL penicillin and 100 μg/mL streptomycin in a 24-well culture plate (Corning, New York, NY, USA) containing one pair of parasites per well at 37 °C and 5% CO2 (Panasonic Healthcare, Sakata, Oizumi-machi, Japan)[38],[39]. For antischistosomal assay, compounds were dissolved in DMSO (final concentration of 0.5% v/v). Each drug concentration was tested at least in triplicate, and the experiments were repeated three times. The initial concentration of the pyrazolines and praziquantel was 50 μM and 3 μM, respectively, which was serially diluted in medium with twofold dilutions to give six concentrations[40],[41]. The negative control worms were assayed in RPMI 1640 medium and RPMI 1640 with 0.5% DMSO. Parasites were monitored daily at 24, 48 and 72 h under a stereomicroscope (Leica Microsystems EZ4E, Wetzlar, Germany) and an inverted microscope (BEL Engineering INV 100, Monza, MB, Italy). Egg production was evaluated daily as previously described. Parasite viability was averaged and 50% effective concentrations (EC50) were calculated using GraphPad Prism software[24],[43].

Vero cells = assay: Cytotoxicity assay (MTT), Vero cells; format: cell-based, African green monkey; details: CC50 (Vero) divided by EC50 (S. mansoni)
Experimental: as §1

[3] = Cytotoxicity assay (MTT), Vero cells; format: cell-based, African green monkey; details: African green monkey, Vero cells (African green monkey kidney cells); Vero cells, 72 h, MTT; brackets = 95% confidence interval
Experimental: as §1

S. mansoni adult worm = assay: In vitro antischistosomal assay (viability of ex vivo adult worms); format: cell-based, Schistosoma mansoni
Experimental: For biological screening, S. mansoni adult parasites were isolated from the mouse infection model (parasite ex vivo) and all compounds were initially screened at 50 µM. The gold-standard antiparasitic compound praziquantel was used as a positive control and DMSO at 0.5% v/v (representing the highest concentration of solvent) served as a negative control. […] For the remaining compounds tested, no EC50 values could be calculated due to lack of activity at 50 μM. […] In tandem, our findings confirm that pyrazolines have a potent antiparasitic activity. Indeed, few compounds in the literature are active at low concentrations for review see[11],[19]. According to criteria established by the World Health Organization (WHO) for antiparasitic hits, leads, and drug candidates, at the start of a screening campaign a compound should inhibit mobility of helminths in vitro at 10 μg/mL[20], commonly ranging from 30 to 40 μM. Thus, the anthelminthic activity of pyrazolines surpasses criteria established by the WHO.
as §2

CCCCCCOc1ccc(C2CC(c3ccccc3)=NN2C(N)=S)cc1 (centres unmarked) [Compound 23, 4,5-dihydro-5-(4-(hexyloxy)phenyl)-3-phenylpyrazole-1-carbothioamide]
Human cells SI (selectivity index) (SH-SY5Y cells): > 7.1 | CC50 at 72 h [1]: > 200 µM | Reduction in the number of eggs [2]: 30–70% | Monkey cells SI (selectivity index) (Vero cells): > 7.1 | CC50 at 72 h [3]: > 200 µM | Time until all parasites were dead (S. mansoni adult worm; 50 μM): 72 h | Antiparasitic activity in initial screen (S. mansoni adult worm; 50 µM, after 72 h, adult worms): showed antiparasitic activity | EC50 (S. mansoni adult worm; Schistosoma mansoni, 72 h, ex vivo adult schistosomes, brackets = 95% confidence interval): 28.2 µM

— PMC8648852, “Pyrazoline derivatives as promising novel antischistosomal agents” (Scientific Reports, 2021)
